Measurements as given in patent publication US20140288074A1, “FUNGICIDAL PYRAZOLES” (E I DU PONT DE NEMOURS AND COMPANY, priority 2013, published 2014).
Marks after values point to notes of the source that are not given here.

Columns and labels:
Septoria tritici = assay: Test D: preventive spray on wheat seedlings, wheat leaf blotch, visual disease rating; assay type: in vivo; conditions: for pest or weed control at 200 ppm / Test D rating (disease control): 200 ppm test suspension, Septoria tritici inoculated the day after spraying
Procedure, shortened: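 Wheat seedlings sprayed to run-off with 200 ppm suspension (≈800 g/ha; asterisked ratings 40 ppm), then inoculated with S. tritici spores next day. Held 48 h saturated at 24 °C, then 19 days at 20 °C. Visual rating 0–100% disease control versus controls, triplicate mean.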

[1] = system: Puccinia recondita f. sp. tritici; assay: Test E: spray after inoculation of wheat seedlings, wheat leaf rust, visual disease rating; assay type: in vivo; conditions: sprayed after inoculation with Puccinia recondita f. sp. tritici
Procedure: General protocol for preparing test suspensions for Tests A-G: the test compounds were first dissolved in acetone in an amount equal to 3% of the final volume and then suspended at the desired concentration (in ppm) in acetone and purified water (50/50 mix by volume) containing 250 ppm of the surfactant Trem® 014 (polyhydric alcohol esters). The resulting test suspensions were then used in Tests A-G. Each test was conducted in triplicate, and the results were averaged. Spraying a 200 ppm test suspension to the point of run-off on the test plants was the equivalent of a rate of 800 g/ha. Unless otherwise indicated, the rating values indicate a 200 ppm test suspension was used. (An asterisk “*” next to the rating value indicates a 40 ppm test suspension was used.) Wheat seedlings were inoculated with a spore suspension of Puccinia recondita f. sp. tritici (the causal agent of wheat leaf rust) and incubated in a saturated atmosphere at 20° C. for 24 h, and then moved to a growth chamber at 20° C. for 2 days. At the end of this time the, the test suspension was sprayed to the point of run-off on the wheat seedlings, and then the seedlings were moved back to the growth chamber at 20° C. for 4 days. Upon removal, visual disease ratings were made. Results for Tests A-G are given in Table A. In the Table, a rating of 100 indicates 100% disease control and a rating of 0 indicates no disease control (relative to the controls). A hyphen (-) indicates no test results.

Compound	pest or weed control at 200 ppm (Septoria tritici; Zymoseptoria tritici, 504 h) [%]	Test E rating (disease control) ([1]; 200 ppm test suspension) [%]	Test D rating (disease control) (Septoria tritici) [%]	pest or weed control at 40 ppm (Septoria tritici; Zymoseptoria tritici, 504 h, 40 ppm test suspension (asterisk), Septoria tritici) [%]	Test E rating (disease control) ([1]; 40 ppm test suspension (asterisk))
Cc1nn(C)c(NCC(C)C)c1-c1ccc(Cl)cc1Cl [Compound 4, 4-(2,4-dichlorophenyl)-1,3-dimethyl-N-(2-methylpropyl)-1H-pyrazol-5-amine]	99	26			
Cc1nn(C)c(C(O)CC(C)C)c1-c1c(F)cccc1F (centres unmarked) [Compound 11]		0	98		
CCC(C)C(O)c1c(-c2c(F)cccc2F)c(C)nn1C (centres unmarked) [Compound 15]		9	100		
CCC(C)C(O)c1c(-c2ccc(F)cc2Cl)c(C)nn1C (stereo not drawn) [Compound 8, 4-(2-chloro-4-fluorophenyl)-1,3-dimethyl-α-(1-methylpropyl)-1H-pyrazole-5-methanol]	100	0			
CCCCC(CC)C(O)c1c(-c2c(F)cccc2F)c(C)nn1C (centres unmarked) [Compound 13]		0	55		
CCCC(O)c1c(-c2c(F)cccc2Cl)c(C)nn1C (centres unmarked) [Compound 21]		0	97		
CCCC(O)c1c(-c2c(F)cccc2F)c(C)nn1C (centres unmarked) [Compound 14]		0	62		
Cc1nn(C)c(C(O)C(C)(C)CCC#N)c1-c1c(F)cccc1F (centres unmarked) [Compound 9]		0	98		
Cc1nn(C)c(C(O)C(C)C)c1-c1ccc(F)cc1Cl (stereo not drawn) [Compound 2, 4-(2-chloro-4-fluorophenyl)-1,3-dimethyl-α-(1-methylethyl)-1H-pyrazole-5-methanol]	100	26			
CCCNc1c(-c2ccc(Cl)cc2Cl)c(C)nn1C [Compound 3]		0	92		
CCC(C)C(O)c1c(-c2c(F)cccc2Cl)c(C)nn1C (stereo not drawn) [Compound 19, 4-(2-chloro-6-fluorophenyl)-1,3-dimethyl-α-(1-methylpropyl)-1H-pyrazole-5-methanol]				89	0* %
C=CCC(C)(C)C(O)c1c(-c2c(F)cccc2F)c(C)nn1C (centres unmarked) [Compound 12]		0	83		
CCCCNc1c(-c2ccc(Cl)cc2Cl)c(C)nn1C [Compound 5, N-butyl-4-(2,4-dichlorophenyl)-1,3-dimethyl-1H-pyrazol-5-amine]	88	79			
Cc1nn(C)c(C(O)CC(C)C)c1-c1c(F)cccc1Cl (centres unmarked) [Compound 20]		0	100		
Cc1nn(C)c(NC2CCCCC2)c1-c1ccc(F)cc1F [Compound 6, N-cyclohexyl-4-(2,4-difluorophenyl)-1,3-dimethyl-1H-pyrazol-5-amine]	100	68			
Cc1nn(C)c(C(O)C2=CCCCC2)c1-c1c(F)cccc1F (centres unmarked) [Compound 10]		0	92		
